Measured values published in US20240279190A1, “COMPOUNDS FOR MODULATING PLATELET-TYPE 12-(S)-LIPOXYGENASE AND METHODS OF USE FOR SAME” (The Regents of The University of California, priority 2021, published 2024).
Residue numbers refer to the chain shown, from its start.

Columns and labels:
[1] = target: T1, 12-LOX mutant F414L (Homo sapiens, UniProt P18054, F414L); assay: UV-Vis-based IC50 assay, F414L mutant; format: biochemical
T1 construct: 6xHis (N); made in house; pFastBac1 shuttle vector
T1 sequence (P18054 1-663 F414L): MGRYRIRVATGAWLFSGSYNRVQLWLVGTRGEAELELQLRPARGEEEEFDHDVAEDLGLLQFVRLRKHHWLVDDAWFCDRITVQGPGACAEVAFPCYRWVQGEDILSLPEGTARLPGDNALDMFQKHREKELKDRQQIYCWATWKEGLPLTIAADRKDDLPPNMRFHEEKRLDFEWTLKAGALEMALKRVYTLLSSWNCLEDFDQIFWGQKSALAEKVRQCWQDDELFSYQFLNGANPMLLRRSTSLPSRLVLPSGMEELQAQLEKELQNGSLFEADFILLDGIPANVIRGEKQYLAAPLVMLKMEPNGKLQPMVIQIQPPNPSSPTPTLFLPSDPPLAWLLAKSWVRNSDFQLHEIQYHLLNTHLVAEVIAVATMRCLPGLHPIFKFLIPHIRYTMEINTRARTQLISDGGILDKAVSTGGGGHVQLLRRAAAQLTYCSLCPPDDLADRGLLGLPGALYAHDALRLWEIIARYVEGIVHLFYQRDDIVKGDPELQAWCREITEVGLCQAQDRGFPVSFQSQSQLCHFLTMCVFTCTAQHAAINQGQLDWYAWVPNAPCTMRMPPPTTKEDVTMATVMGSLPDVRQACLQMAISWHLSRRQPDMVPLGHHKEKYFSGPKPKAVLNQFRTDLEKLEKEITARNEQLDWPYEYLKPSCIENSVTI
From the text: (§1) Based on the ML355 binding mode predicted by the modeling, all residues within 5 Å of any atom of ML355 were selected for experimental mutagenesis. The selected residues were replaced with amino acids with either bulkier or smaller side chains in order to determine what specific interactions play a role in inhibitor binding. […] The numbering refers to the UniProt accession number P18054 sequence, with the N-terminal methionine assigned as amino acid number one. The primers for all mutants were designed using the online QuikChange Primer Design tool (http://www.genomics.agilent.com/primerDesignProgram.jsp) from Agilent Technologies (CA, USA). The mutations were introduced by using the QuikChange® II XL site-directed mutagenesis kit from Agilent, following the instructions in the protocol provided. […]
(§2) The wild type 12-LOX (wt-12-LOX) enzyme and its mutants were expressed as fusion proteins, with an N-terminal 6×His tag, and were affinity purified by nickel-iminodiacetic acid agarose using FPLC (Biorad).
(§3) The percent inhibition was determined by comparing the enzyme rates of the control (DMSO solvent) and the inhibitor sample by following the formation of the conjugated diene product at 234 nm (ε=25,000 M^−1cm^−1). […] The substrate concentration was quantitatively determined by allowing the enzymatic reaction to go to completion in the presence of soybean LOX-1. […]

[2] = target: T2, 12-LOX mutant F352L (Homo sapiens, UniProt P18054, F352L); assay: UV-Vis-based IC50 assay, F352L mutant; format: biochemical
T2 construct: 6xHis (N); made in house; pFastBac1 shuttle vector
T2 sequence (P18054 1-663 F352L): T1 sequence (P18054 1-663 F414L) with F352L, L414F
From the text: as §1, §2, §3

## COc1cccc(CNc2ccc(S(=O)(=O)Nc3nc4c(ccc5ccccc54)s3)cc2)c1O [Compound LOX-12-001, 4-((2-hydroxy-3-methoxybenzyl)amino)-N-(naphtho[1,2-d]thiazol-2-yl)benzenesulfonamide]
[1]; F414L
  IC50: 0.18 ± 0.01 µM
[1]; F414L vs wt12-LOX
  fold increase in IC50 compared to wt12-LOX: 3.6 fold
[2]; F352L
  IC50: 0.49 ± 0.05 µM
[2]; F352L vs wt12-LOX
  fold increase in IC50 compared to wt12-LOX: 9.8 fold
